According to PMC10221159, “Investigation of N-Acetyltransferase 2-Mediated Drug Interactions of Amifampridine: In Vitro and In Vivo Evidence of Drug Interactions with Acetaminophen” (Pharmaceutics, 2023):

Test: In vitro metabolic profile of amifampridine (3-N-acetylamifampridine formation) in rat liver S9 fraction
Type: in vitro ADME
Description: An in vitro metabolic study was performed to investigate the metabolic profile of amifampridine in the rat liver S9 fraction. The reaction mixture, which consisted of rat liver S9 fraction (2 mg/mL protein) and 2 mM acetyl-CoA in potassium phosphate buffer, was prepared and incubated for 5 min in a thermal mixer (200 oscillations/min) at 37 °C. Then, amifampridine was added to the reaction mixture to make the final concentrations of amifampridine at 2, 10, 20, 50, 100, 500, and 1000 μM. After further incubation for 15 min at 37 °C, 50 μL of the sample was transferred into the tube containing 200 μL of ice-cold potassium phosphate buffer and mixed by vortexing. An amount of 50 μL of the mixture was then transferred into the tube containing 100 μL of internal standard (IS; 5 ng/mL ondansetron in acetonitrile), followed by vortexing and centrifugation at 14,000 rpm for 15 min at 4 °C. The supernatant was transferred into vials for HPLC-tandem mass spectrometry (MS/MS) analysis and the concentration of 3-N-acetylamifampridine was determined.
The Vm and Km values, Michaelis–Menten parameters, were determined by linear regression using Lineweaver–Burk equation, as follows: 1/v=Km/Vmax×1/S+1/Vmax where v is the rate of amifampridine metabolism to 3-N-acetylamifampridine in the S9 fraction, [S] is the concentration of amifampridine, Vmax is the maximum metabolic rate of amifampridine, and Km is the concentration of amifampridine at half Vmax. The intrinsic clearance (CLint) was calculated using Vmax/Km, with the assumption that Km is much greater than [S], as is usual in clinical practice.

Work on `Nc1ccncc1N` [amifampridine] yielded a Vmax (3-N-acetylamifampridine formation, rat liver S9, Lineweaver–Burk plot) of 5130 ± 1100 pmol/min/mg protein, an intrinsic clearance in liver S9 fraction (liver S9 fraction, Vmax/Km, rat liver S9, read-out: CLint) of 78 ± 11 µL/min/mg and a Km at 15 min (rat liver S9 fraction, 3-N-acetylamifampridine formation, rat liver S9 (2 mg/mL protein), Lineweaver–Burk plot) of 66.6 ± 24.2 µM.
